Results from ChEMBL document CHEMBL1125608, “Synthesis and biological activity of angiotensin II analogues containing a Val-His replacement, Val psi[CH(CONH2)NH]His” (J Med Chem, 1991).
Peptide text beside a SMILES is read from it. * marks the point of attachment. Propanoyl(3-(4-MeO-Ph)) = COc1ccc(CCC(=O)*)cc1; Desaminotyrosyl = O=C(CCc1ccc(O)cc1)*; Cbz = O=C(OCc1ccccc1)*

How the values were obtained:
Cavia porcellus = organism: Cavia porcellus; test: The compound was tested for its inhibitory activity as antagonist of AI on guinea pig ileum; format: functional, organism-based
[1] = biological target: Angiotensin II receptor (Cavia porcellus); test: Inhibitory activity as antagonist of AII on guinea pig ileum
[2] = system: Angiotensin II receptor (Oryctolagus cuniculus); test: Displacement of [3H]Angiotensin II (300 ng/mL) from rabbit adrenal cortex
[3] = biological target: Angiotensin II receptor (Cavia porcellus); test: The compound was tested for its inhibitory activity as antagonist of AII on guinea pig ileum

| IC50 (Cavia porcellus) | IC50 [1] | Displacement [2] | IC50 [3] | Compound |
| --- | --- | --- | --- | --- |
| 0.56 nM |  |  |  | CC[C@H](C)[C@H](NC(=O)[C@H](Cc1ccc(O)cc1)NC(=O)[C@@H](NC(=O)[C@H](CCCN=C(N)N)NC(=O)CNC)C(C)C)C(=O)N[C@@H](Cc1c[nH]cn1)C(=O)N1CCC[C@H]1C(=O)N[C@@H](C)C(=O)O |
| 345 nM | 330 nM |  |  | CC[C@H](C)[C@H](NC(=O)[C@@H]1CCCN1C(=O)[C@H](Cc1c[nH]cn1)N[C@H](C(N)=O)[C@@H](NC(=O)[C@H](Cc1ccc(O)cc1)NC(=O)[C@@H](NC(=O)[C@H](CCCN=C(N)N)NC(=O)CNC)C(C)C)C(C)C)C(=O)O |
| > 15000 nM | > 15000 nM | 0% |  | CC[C@H](C)[C@H](NC(=O)[C@@H]1CCCN1C(=O)[C@H](Cc1c[nH]cn1)NC(=O)[C@@H](NC(=O)CCc1ccc(O)cc1)C(C)C)C(=O)O (Desaminotyrosyl-VHPI-OH) |
| 0.17 nM |  |  |  | CC[C@H](C)[C@H](NC(=O)[C@@H]1CCCN1C(=O)[C@H](Cc1c[nH]cn1)NC(=O)[C@@H](NC(=O)[C@H](Cc1ccc(O)cc1)NC(=O)[C@@H](NC(=O)[C@H](CCCN=C(N)N)NC(=O)CNC)C(C)C)[C@@H](C)CC)C(=O)O |
| > 15000 nM | > 15000 nM | 10% |  | CC[C@H](C)[C@H](NC(=O)[C@@H]1CCCN1C(=O)[C@H](Cc1c[nH]cn1)NC(=O)[C@@H](NC(=O)OCc1ccccc1)C(C)C)C(=O)O (Cbz-VHPI-OH) |
| 0.51 nM | 0.45 nM | 100% |  | CC[C@H](C)[C@H](NC(=O)[C@@H]1CCCN1C(=O)[C@H](Cc1c[nH]cn1)NC(=O)[C@@H](NC(=O)[C@H](Cc1ccc(O)cc1)NC(=O)[C@@H](NC(=O)[C@H](CCCN=C(N)N)NC(=O)CNC)C(C)C)C(C)C)C(=O)O |
| > 15000 nM | > 15000 nM | 0% |  | CC[C@H](C)[C@H](NC(=O)[C@@H]1CCCN1C(=O)[C@H](Cc1c[nH]cn1)NC(=O)[C@@H](NC(=O)CCc1ccc(OC)cc1)C(C)C)C(=O)O ({Propanoyl(3-(4-MeO-Ph))}-VHPI-OH) |
| 0.048 nM |  |  |  | CNCC(=O)N[C@@H](CCCNC(=N)N)C(=O)N[C@H](C(=O)N[C@@H](Cc1ccc(O)cc1)C(=O)N[C@H](C(=O)N[C@@H](Cc1cnc[nH]1)C(=O)N1CCC[C@H]1C(=O)N[C@@H](C)C(=O)O)C(C)C)C(C)C [SARALASIN] |
| > 15000 nM |  |  | > 15000 nM | CC[C@H](C)[C@H](NC(=O)[C@@H]1CCCN1C(=O)[C@H](Cc1c[nH]cn1)NC(C(N)=O)[C@@H](NC(=O)OCc1ccccc1)C(C)C)C(=O)O (some centres undefined) |
